Test results from patent US20200247808A1, “Heterocyclic Tec-Family Kinase Inhibitors” (GB005, Inc., priority 2015, published 2020).

Legend:
human BTK = molecular target: T1, human BTK (Homo sapiens, UniProt Q06187); experiment: BTK kinase inhibition, KinaseProfiler radiometric protein kinase assay (Eurofins); format: biochemical
T1 construct: purchased Eurofins Pharma Discovery Services UK Limited (contract assay, KinaseProfiler)
Description: (§1) In vitro potency of selected compound was defined against human BTK, EGFR, and ErbB2 kinases using Kinase Profiler radiometric protein kinase assays performed at Eurofins Pharma Discovery Services UK Limited.
(§2) Each kinase is diluted in buffer and all compounds were prepared to 50x final assay concentration in 100% DMSO. This working stock of the compound was added to the assay well as the first component in the reaction, followed by the remaining components as detailed in the assay protocol listed above. The reaction was initiated by the addition of the MgATP mix. […] (specific activity approx. 500 cpm/pmol, concentration as required) and variable test article concentrations. […] The reaction was stopped by the addition of 3% phosphoric acid solution. 10 μL of the reaction is then spotted onto a P30 filtermat and washed three times for 5 minutes in 75 mM phosphoric acid and once in methanol prior to drying and scintillation counting. In addition positive control wells contain all components of the reaction, except the compound of interest; however, DMSO (at a final concentration of 2%) were included in these wells to control for solvent effects as well as blank wells contain all components of the reaction, with a reference inhibitor replacing the compound of interest. This abolishes kinase activity and establishes the base-line (0% kinase activity remaining). The potency of each compound was reported by estimating the EC50.

[1] = test system: TMD-8 human activated B cell diffuse large B cell lymphoma cells; experiment: TMD-8 survival assay (Cell Titer-Glo); format: cell-based; details: TMD8, TMD-8 cells, 72 h
Description: TMD-8 human activated B cell diffuse large B cell lymphoma cells were seeded in 96-well plates at a density of 20,000 cells/well in HyClone RPMI supplemented with 10% FBS (Fisher)/1% Penicillin/Streptomycin (HyClone) and incubated at 37° C., 5% CO2. Cells were treated in triplicate with 1,000 nM or 100 nM curves of compounds for 72h. Cell survival was measured by Cell Titer-Glo Luminescent Assay (Promega). EC50 values (50% proliferation in the presence of compound as compared to vehicle treated controls) were calculated from dose response compound curves using GraphPad Prism Software.

in vitro = details: human, liver microsomes
Description: Intrinsic liver microsomal stability was determined using cryopreserved human liver microsomes. […] Following centrifugation 100 μL of the supernatant was transferred to a 96-well plate and analyzed by LC-MS/MS using test-article specific methods. Controls included absence of microsomes or co-factors or use of heat-denatured microsomes. Intrinsic clearance was calculated using the formula: (In(% Time 0/% Time 1)/T1−T0)×Volume of incubation/protein in the incubation.

EGFR = EGFR (Homo sapiens, UniProt P00533); experiment: EGFR kinase inhibition, KinaseProfiler radiometric protein kinase assay (Eurofins); format: biochemical; parameters: purchased Eurofins Pharma Discovery Services UK Limited (contract assay, KinaseProfiler); details: 40 min room temperature
Description: as §1
as §2, with “The potency of each compound was reported by estimating the EC50.” left out

Chain of EGFR (P00533 25-1210): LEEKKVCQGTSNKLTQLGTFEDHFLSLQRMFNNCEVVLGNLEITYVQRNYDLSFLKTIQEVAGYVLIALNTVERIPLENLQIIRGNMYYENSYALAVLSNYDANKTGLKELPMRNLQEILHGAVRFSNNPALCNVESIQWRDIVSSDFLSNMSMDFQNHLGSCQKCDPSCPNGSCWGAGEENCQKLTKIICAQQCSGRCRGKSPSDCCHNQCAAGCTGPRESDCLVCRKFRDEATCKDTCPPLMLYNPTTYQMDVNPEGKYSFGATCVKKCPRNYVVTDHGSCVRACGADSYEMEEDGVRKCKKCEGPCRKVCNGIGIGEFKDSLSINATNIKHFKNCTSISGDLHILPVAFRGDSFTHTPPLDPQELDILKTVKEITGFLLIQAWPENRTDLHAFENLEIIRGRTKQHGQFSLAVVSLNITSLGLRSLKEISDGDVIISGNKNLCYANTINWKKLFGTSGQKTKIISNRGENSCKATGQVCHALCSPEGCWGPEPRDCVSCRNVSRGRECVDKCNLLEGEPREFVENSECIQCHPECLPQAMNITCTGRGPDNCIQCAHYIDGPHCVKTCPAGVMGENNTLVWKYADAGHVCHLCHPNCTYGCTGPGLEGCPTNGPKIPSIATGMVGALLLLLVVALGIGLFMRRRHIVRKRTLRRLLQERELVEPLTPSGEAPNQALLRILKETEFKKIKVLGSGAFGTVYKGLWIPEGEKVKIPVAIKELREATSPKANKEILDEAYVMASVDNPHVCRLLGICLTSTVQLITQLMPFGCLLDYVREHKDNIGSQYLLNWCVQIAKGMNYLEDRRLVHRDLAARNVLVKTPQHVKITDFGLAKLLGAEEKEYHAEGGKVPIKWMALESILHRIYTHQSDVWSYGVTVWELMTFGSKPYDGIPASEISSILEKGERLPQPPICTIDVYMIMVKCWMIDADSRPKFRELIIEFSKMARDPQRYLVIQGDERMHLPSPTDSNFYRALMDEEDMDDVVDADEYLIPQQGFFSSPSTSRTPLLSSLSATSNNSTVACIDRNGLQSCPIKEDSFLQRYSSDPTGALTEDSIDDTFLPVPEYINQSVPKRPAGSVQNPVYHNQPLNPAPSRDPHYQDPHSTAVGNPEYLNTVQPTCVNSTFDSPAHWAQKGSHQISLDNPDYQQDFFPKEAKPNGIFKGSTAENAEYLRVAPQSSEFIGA
T1 sequence (Q06187 whole entry): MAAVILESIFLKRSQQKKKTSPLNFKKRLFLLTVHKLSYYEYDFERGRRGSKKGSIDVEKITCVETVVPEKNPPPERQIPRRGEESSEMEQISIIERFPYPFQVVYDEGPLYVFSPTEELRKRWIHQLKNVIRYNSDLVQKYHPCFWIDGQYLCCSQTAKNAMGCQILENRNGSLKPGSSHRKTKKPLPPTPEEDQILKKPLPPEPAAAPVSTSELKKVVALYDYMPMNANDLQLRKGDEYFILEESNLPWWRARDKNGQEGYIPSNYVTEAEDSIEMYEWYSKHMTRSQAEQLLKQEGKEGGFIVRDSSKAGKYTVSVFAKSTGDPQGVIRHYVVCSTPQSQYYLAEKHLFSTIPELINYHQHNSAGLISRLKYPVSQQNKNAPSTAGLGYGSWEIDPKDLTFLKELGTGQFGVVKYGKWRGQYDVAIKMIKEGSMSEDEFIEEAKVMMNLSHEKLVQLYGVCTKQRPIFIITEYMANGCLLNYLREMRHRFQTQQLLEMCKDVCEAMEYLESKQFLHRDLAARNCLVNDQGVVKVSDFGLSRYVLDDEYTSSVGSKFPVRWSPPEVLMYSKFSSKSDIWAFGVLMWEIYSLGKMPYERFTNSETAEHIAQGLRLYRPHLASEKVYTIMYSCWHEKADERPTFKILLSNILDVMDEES

Question: With `CC#CC(=O)N[C@H]1C[C@@H](n2nc(-c3ccc(Oc4ccccc4)cc3)c3c(N)ncnc32)C1` [Compound 1] as the compound, how does the IC50 (human BTK) read?
Answer: 3 nM

Question: And the EC50 [1]?
Answer: 1 nM

Question: What about the microsomal CLint at 1 μM (in vitro) of the same compound?
Answer: 34.9 µL/min/mg

Question: And the IC50 (EGFR)?
Answer: > 1000 nM

Question: Which IC50 (human BTK) does the source give for `C=CC(=O)N[C@H]1C[C@@H](n2nc(-c3ccc(Oc4ccccc4)cc3)c3c(N)ncnc32)C1` [Compound 2] here?
Answer: 3 nM

Question: And the EC50 [1]?
Answer: 1.9 nM

Question: What about the microsomal CLint at 1 μM (in vitro) of the same compound?
Answer: 15.6 µL/min/mg

Question: And the IC50 (EGFR)?
Answer: > 1000 nM
